A short description of data set [1]: Toxic dose of compound which causes 50% cytotoxicity towards HIV-1 uninfected JM cells. It counts as toxicity, cell-based, JM1. The following applies: human, read-out: TD50 (the source's name).
Data set [2] deals with JM1. Description: Effective dose of compound that decreases antigen production in HIV-1 infected JM cells to 50% of control. As to conditions: Homo sapiens, read-out: ED50 (the source's name). It counts as functional.

The values below come from ChEMBL document CHEMBL1151585, “Aryl phosphate derivates of AZT inhibit HIV replication in cells where the nucleoside is poorly active” (Bioorg Med Chem Lett, 1992).

Each structure is given as a SMILES string.

For the molecule `Cc1cn([C@H]2C[C@H](N=[N+]=[N-])[C@@H](CO)O2)c(=O)[nH]c1=O` [ZIDOVUDINE], in data set [1], the CC50 was greater than 1000 µM. The EC50 in data set [2] stood at 100 µM.

In the case of `COC(=O)C(Cc1ccccc1)NP(=O)(OCC1OC(n2cc(C)c(=O)[nH]c2=O)CC1N=[N+]=[N-])Oc1ccccc1` (stereo not drawn), the CC50 in data set [1] worked out at 100 µM. Further, the EC50 in data set [2] is 1.6 µM.

Consider `COC(=O)C(C)NP(=O)(OCC1OC(n2cc(C)c(=O)[nH]c2=O)CC1N=[N+]=[N-])Oc1ccc(F)cc1` (stereo not drawn), for which the CC50 in data set [1] is greater than 200 µM. In data set [2], the EC50 turned out to be 0.32 µM.

For `COC(=O)C(C)NP(=O)(OCC1OC(n2cc(C)c(=O)[nH]c2=O)CC1N=[N+]=[N-])Oc1ccc([N+](=O)[O-])cc1` (stereo not drawn), the CC50 in data set [1] turned out to be 300 µM. The EC50 in data set [2] is 40 µM.

For the molecule `COC(=O)[C@H](C)NP(=O)(OC[C@H]1O[C@@H](n2cc(C)c(=O)[nH]c2=O)C[C@@H]1N=[N+]=[N-])Oc1ccccc1` (stereo partly drawn), the CC50 in data set [1] worked out at 500 µM. Besides, the EC50 in data set [2] was determined as 0.8 µM.

In the case of `COC(=O)C(C)NP(=O)(OCC1OC(n2cc(C)c(=O)[nH]c2=O)CC1N=[N+]=[N-])Oc1ccc(OC)cc1` (stereo not drawn), the CC50 in data set [1] was 100 µM. The EC50 in data set [2] is 0.8 µM.

`CCc1ccc(OP(=O)(NC(C)C(=O)OC)OCC2OC(n3cc(C)c(=O)[nH]c3=O)CC2N=[N+]=[N-])cc1` (stereo not drawn): the CC50 in data set [1] is 40 µM. Also, the EC50 in data set [2] was 0.4 µM.

For the molecule `COC(=O)CNP(=O)(OCC1OC(n2cc(C)c(=O)[nH]c2=O)CC1N=[N+]=[N-])Oc1ccccc1` (stereo not drawn), the CC50 in data set [1] came to 1000 µM. Besides, the EC50 in data set [2] stood at 100 µM.

As for `COC(=O)C(CC(C)C)NP(=O)(OCC1OC(n2cc(C)c(=O)[nH]c2=O)CC1N=[N+]=[N-])Oc1ccccc1` (stereo not drawn), the CC50 in data set [1] worked out at 80 µM. The EC50 in data set [2] was 8 µM.
